Measured values from ChEMBL document CHEMBL1141049, “Synthesis and structure-activity relationship of N-alkyl Gly-boro-Pro inhibitors of DPP4, FAP, and DPP7” (Bioorg Med Chem Lett, 2005).

Key:
[1] = molecular target: T1, Dipeptidyl peptidase 2 (Homo sapiens, UniProt Q9UHL4); assay: Inhibitory activity against human DPP7 using Ala-Pro-AMC in fluorometric assay
[2] = molecular target: Dipeptidyl peptidase 4 (Homo sapiens, UniProt P27487); assay: Inhibitory activity against human DPP4 using Gly-Pro-AMC in fluorometric assay
[3] = molecular target: T2, Prolyl endopeptidase FAP (Homo sapiens, UniProt Q12884); assay: Inhibitory activity against human FAP using Lys-Pro-AMC in fluorimetric assay; No inhibition
T2 sequence (Q12884 whole entry): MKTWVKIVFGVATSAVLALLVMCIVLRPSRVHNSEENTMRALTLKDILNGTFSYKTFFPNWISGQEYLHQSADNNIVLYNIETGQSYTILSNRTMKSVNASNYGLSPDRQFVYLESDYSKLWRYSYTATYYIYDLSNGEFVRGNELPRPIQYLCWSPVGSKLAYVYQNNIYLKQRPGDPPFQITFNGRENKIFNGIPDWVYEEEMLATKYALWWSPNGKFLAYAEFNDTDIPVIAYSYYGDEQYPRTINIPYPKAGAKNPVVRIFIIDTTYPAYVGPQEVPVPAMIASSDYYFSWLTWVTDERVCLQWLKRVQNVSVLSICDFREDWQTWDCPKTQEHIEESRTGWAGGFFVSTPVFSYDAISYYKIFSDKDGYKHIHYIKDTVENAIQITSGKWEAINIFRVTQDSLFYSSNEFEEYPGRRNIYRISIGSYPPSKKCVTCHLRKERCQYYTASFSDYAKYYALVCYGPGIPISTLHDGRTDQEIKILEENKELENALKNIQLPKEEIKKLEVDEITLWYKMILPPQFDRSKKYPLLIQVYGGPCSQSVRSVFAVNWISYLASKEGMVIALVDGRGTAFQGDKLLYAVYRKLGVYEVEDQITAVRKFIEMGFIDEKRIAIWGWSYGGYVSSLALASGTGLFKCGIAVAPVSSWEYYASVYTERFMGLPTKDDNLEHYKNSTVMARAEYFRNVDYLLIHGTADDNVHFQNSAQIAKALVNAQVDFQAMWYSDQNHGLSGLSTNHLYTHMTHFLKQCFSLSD

[4] = molecular target: T1, Dipeptidyl peptidase 2; assay: Inhibitory activity against human DPP7 using Ala-Pro-AMC in fluorometric assay; No inhibition
[5] = molecular target: Prolyl endopeptidase FAP (Homo sapiens) (UniProt Q12884); assay: Inhibition of human FAP using Lys-Pro-AMC in fluorometric assay at 33 uM

Chain of Dipeptidyl peptidase 4 (P27487 whole entry): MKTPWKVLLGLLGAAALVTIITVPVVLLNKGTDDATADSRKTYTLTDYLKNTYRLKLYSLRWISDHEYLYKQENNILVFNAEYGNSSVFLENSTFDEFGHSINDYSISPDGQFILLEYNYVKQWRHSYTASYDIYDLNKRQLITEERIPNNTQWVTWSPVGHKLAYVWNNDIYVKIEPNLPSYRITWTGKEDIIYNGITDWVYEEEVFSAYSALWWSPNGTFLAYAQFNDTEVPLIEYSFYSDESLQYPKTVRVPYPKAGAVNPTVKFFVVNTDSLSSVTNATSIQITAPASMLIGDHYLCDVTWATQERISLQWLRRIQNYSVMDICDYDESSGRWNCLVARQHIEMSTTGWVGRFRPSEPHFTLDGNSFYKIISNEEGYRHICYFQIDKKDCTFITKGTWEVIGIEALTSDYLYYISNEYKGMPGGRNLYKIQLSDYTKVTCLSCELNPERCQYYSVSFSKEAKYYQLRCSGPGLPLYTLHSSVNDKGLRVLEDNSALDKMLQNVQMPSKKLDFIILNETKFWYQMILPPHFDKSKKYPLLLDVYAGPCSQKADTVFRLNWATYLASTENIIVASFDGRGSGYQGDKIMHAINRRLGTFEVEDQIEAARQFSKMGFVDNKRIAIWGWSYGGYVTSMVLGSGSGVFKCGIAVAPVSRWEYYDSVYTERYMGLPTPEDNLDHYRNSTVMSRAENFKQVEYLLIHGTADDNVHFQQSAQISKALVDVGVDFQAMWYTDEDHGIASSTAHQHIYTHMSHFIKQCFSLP

SMILES | IC50 [1] [nM] | IC50 [2] [nM] | IC50 [3] | IC50 [4] | inhibition [5] [%]
CN(CC(=O)N1CCC[C@@H]1B(O)O)C1C2CC3CC(C2)CC1C3 (stereo partly specified) | 4600 | 1600 |  |  | 
O=C(CNC1CCCC1)N1CCC[C@H]1B(O)O | 15 | 25 |  |  | 
O=C(CNC1C2CC3CC(C2)CC1C3)N1CCC[C@@H]1B(O)O (stereo partly specified) | 120 | 12 |  |  | 
CC12CC3(C)CC(C)(C1)CC(NCC(=O)N1CCC[C@@H]1B(O)O)(C2)C3 | 35 | 560 |  |  | 
O=C(CNC1CCCCCC1)N1CCC[C@H]1B(O)O | 1.8 | 7.8 |  |  | 
O=C(CNC1CCCCC1)N1CCC[C@H]1B(O)O | 4.1 | 27 |  |  | 
C[C@@H](N)C(=O)N1CCC[C@H]1B(O)O | 6.3 |  |  |  | 
O=C(CNC1CCCCCCC1)N1CCC[C@H]1B(O)O | 4 | 27 |  |  | 
CC(C)[C@@H](NC1CCCCC1)C(=O)N1CCC[C@H]1B(O)O |  | 16000 | Not Active | Not Active | 
O=C(CNC1CCC1)N1CCC[C@H]1B(O)O | 140 | 75 |  |  | 
O=C(CNC1CC1)N1CCC[C@H]1B(O)O | 570 | 130 |  |  | 30
O=C(CNC1CC2CCCC1C2)N1CCC[C@H]1B(O)O (stereo partly specified) | 8 | 25 |  |  | 
O=C(CNC1CCCCCCCCC1)N1CCC[C@H]1B(O)O | 2.2 | 58 |  |  | 
CCCCCC12CCC(NCC(=O)N3CCC[C@H]3B(O)O)(CC1)CC2 | 1 | 61 |  |  | 
O=C(CNC12CC3CC(CC(C3)C1)C2)N1CCC[C@@H]1B(O)O | 420 | 8 |  |  | 
